Reference: US20220227763A1, “MICROBIOCIDAL DERIVATIVES” (SYNGENTA CROP PROTECTION AG, priority 2019, published 2022)

What was measured:
[1] = test system: Mycosphaerella graminicola (Septoria tritici); assay: Mycosphaerella graminicola (Septoria tritici) / liquid culture (Septoria blotch); assay type: cell-based; details: Zymoseptoria tritici, growth inhibition determined photometrically 4-5 days after application, compared to untreated control
Procedure: Example B5: Mycosphaerella graminicola (Septoria tritici)/Liquid Culture (Septoria blotch) Conidia of the fungus from cryogenic storage are directly mixed into nutrient broth (PDB potato dextrose broth). After placing a (DMSO) solution of test compound into a microtiter plate (96-well format), the nutrient broth containing the fungal spores is added. The test plates are incubated at 24° C. and the inhibition of growth is determined photometrically 4-5 days after application. […] […]-19.

melting point | Structure (SMILES) | inhibition of growth at 20 ppm [1]
65 to 89 °C | CC1(C)CCC1NC(=O)c1nc(Nc2cc(F)cc(F)c2)cc2cc[nH]c12 (stereo not shown) [Compound P-1, 5-(3,5-difluoroanilino)-N-(2,2-dimethylcyclobutyl)-1H-pyrrolo[2,3-c]pyridine-7-carboxamide] | ≥ 80%
115 to 148 °C | CC1(C)CCC1NC(=O)c1nc(Nc2cc(F)nc(F)c2)cc2cc[nH]c12 (stereo not shown) [Compound P-2, 5-[(2,6-difluoro-4-pyridyl)amino]-N-(2,2-dimethylcyclobutyl)-1H-pyrrolo[2,3-c]pyridine-7-carboxamide] | ≥ 80%
158 to 166 °C | Cn1cc(Nc2cc3cn[nH]c3c(C(=O)NC3CCC3(C)C)n2)cn1 (stereo not shown) [Compound P-4, N-(2,2-dimethylcyclobutyl)-5-[(1-methylpyrazol-4-yl)amino]-1H-pyrazolo[3,4-c]pyridine-7-carboxamide] | 
158 to 166 °C | CC1(C)CCC1NC(=O)c1nc(Nc2cnsc2)cc2cn[nH]c12 (stereo not shown) [Compound P-5, N-(2,2-dimethylcyclobutyl)-5-(isothiazol-4-ylamino)-1H-pyrazolo[3,4-c]pyridine-7-carboxamide] | ≥ 80%
167 to 176 °C | CC1(C)CCC1NC(=O)c1nc(Nc2cc(F)cc(F)c2)cc2cn[nH]c12 (stereo not shown) [Compound P-6, 5-(3,5-difluoroanilino)-N-(2,2-dimethylcyclobutyl)-1H-pyrazolo[3,4-c]pyridine-7-carboxamide] | ≥ 80%
222 to 238 °C | CC1(C)CCC1NC(=O)c1nc(Nc2ccnc(F)c2)cc2cn[nH]c12 (stereo not shown) [Compound P-7, N-(2,2-dimethylcyclobutyl)-5-[(2-fluoro-4-pyridyl)amino]-1H-pyrazolo[3,4-c]pyridine-7-carboxamide] | ≥ 80%
240 to 250 °C | CC1(C)CCC1NC(=O)c1nc(Nc2cc(F)nc(F)c2)cc2cn[nH]c12 (stereo not shown) [Compound P-8, 5-[(2,6-difluoro-4-pyridyl)amino]-N-(2,2-dimethylcyclobutyl)-1H-pyrazolo[3,4-c]pyridine-7-carboxamide] | ≥ 80%
158 to 162 °C | CCCCCNC(=O)c1nc(Nc2cncc(F)c2)cc2cc[nH]c12 [Compound P-10, 5-[(5-fluoro-3-pyridyl)amino]-N-pentyl-1H-pyrrolo[2,3-c]pyridine-7-carboxamide] | 
220 to 233 °C | CCCCCNC(=O)c1nc(Nc2cc(F)nc(F)c2)cc2cc[nH]c12 [Compound P-11, 5-[(2,6-difluoro-4-pyridyl)amino]-N-pentyl-1H-pyrrolo[2,3-c]pyridine-7-carboxamide] | 
155 to 168 °C | CCCCCNC(=O)c1nc(Nc2cncc(F)c2)cc2cn[nH]c12 [Compound P-13, 5-[(5-fluoro-3-pyridyl)amino]-N-pentyl-1H-pyrazolo[3,4-c]pyridine-7-carboxamide] | 
185 to 195 °C | O=C(NC1CCC12CCCC2)c1nc(Nc2cncc(F)c2)cc2cn[nH]c12 (stereo not shown) [Compound P-15, 5-[(5-fluoro-3-pyridyl)amino]-N-spiro[3.4]octan-3-yl-1H-pyrazolo[3,4-c]pyridine-7-carboxamide] | 
180 to 191 °C | O=C(NC1CCC12CCCC2)c1nc(Nc2cncc(F)c2)cc2cc[nH]c12 (stereo not shown) [Compound P-17, 5-[(5-fluoro-3-pyridyl)amino]-N-spiro[3.4]octan-3-yl-1H-pyrrolo[2,3-c]pyridine-7-carboxamide] | 
170 to 178 °C | O=C(NC1CCC12CCCC2)c1nc(Nc2cc(F)nc(F)c2)cc2cc[nH]c12 (stereo not shown) [Compound P-18, 5-[(2,6-difluoro-4-pyridyl)amino]-N-spiro[3.4]octan-3-yl-1H-pyrrolo[2,3-c]pyridine-7-carboxamide] | ≥ 80%
168 to 180 °C | O=C(NC1CCC12CCCC2)c1nc(Nc2cc(F)nc(F)c2)cc2cn[nH]c12 (stereo not shown) [Compound P-19, 5-[(2,6-difluoro-4-pyridyl)amino]-N-spiro[3.4]octan-3-yl-1H-pyrazolo[3,4-c]pyridine-7-carboxamide] | ≥ 80%
